Test results as given in PubChem BioAssay (NCI).
Where “and” joins values, the source holds several entries; their conditions need not be identical. Equal entries are not always repeated.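 Interpolation was linear, between the two tested concentrations surrounding the appropriate level; five concentrations were tested over 48 hours in 96-well plates. The concentration for 50% growth inhibition is given as GI50. TGI denotes the concentration required for complete inhibition of growth.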

Key:
Experiment in all cases: DTP human tumour cell line panel, 48 h
KM12 colon = test system: KM12 colon
SK-OV-3 ovarian = test system: SK-OV-3 ovarian
HOP-62 NSCLC = test system: HOP-62 NSCLC
HS 578T breast = test system: HS 578T breast
COLO 205 colon = test system: COLO 205 colon
ACHN renal = test system: ACHN renal
HOP-92 NSCLC = test system: HOP-92 NSCLC
HL-60(TB) leukemia = test system: HL-60(TB) leukemia
RPMI-8226 leukemia = test system: RPMI-8226 leukemia
HCC-2998 colon = test system: HCC-2998 colon

SMILES	GI50 (KM12 colon)	TGI (KM12 colon)	GI50 (SK-OV-3 ovarian)	TGI (SK-OV-3 ovarian)	GI50 (HOP-62 NSCLC)	TGI (HOP-62 NSCLC)	GI50 (HS 578T breast)	TGI (HS 578T breast)	GI50 (COLO 205 colon)	TGI (COLO 205 colon)	GI50 (ACHN renal)	TGI (ACHN renal)	GI50 (HOP-92 NSCLC)	TGI (HOP-92 NSCLC)	GI50 (HL-60(TB) leukemia)	TGI (HL-60(TB) leukemia)	GI50 (RPMI-8226 leukemia)	TGI (RPMI-8226 leukemia)	GI50 (HCC-2998 colon)	TGI (HCC-2998 colon)
COc1ccc2nc3cc(Cl)ccc3c(NCCCNCCO)c2c1	0.498 µM	2.81 µM	0.635 µM	3.33 µM	0.393 µM	2.14 µM	1.48 µM	5.62 µM	0.241 µM	1.14 µM	0.403 µM	3.25 µM	1.2 µM	3.45 µM	0.613 µM	2.64 µM	0.497 µM	2.74 µM	0.609 µM	2.17 µM
COc1cc2c(c(OC)c1OC)-c1ccc(NN(C(=O)c3ccccc3)C(=O)c3ccccc3)c(=O)cc1[C@@H](NC(C)=O)CC2 (tested in a mixture with another compound)	3.63 µM	25.7 µM	2.65 µM	8.77 µM	4.54 µM	30.3 µM	1.9 µM	6.3 µM	3.02 µM	12.2 µM	4.27 µM	24.8 µM	3.84 µM	> 100 µM	2.1 µM	14.7 µM	4.72 µM	82.5 µM	3.23 µM	12.7 µM
C=C1C[C@H]2C=Nc3cc(OCCCOc4cc5c(cc4OC)C(=O)N4CC(=C)C[C@H]4C=N5)c(OC)cc3C(=O)N2C1	0.0201 µM	0.0722 µM and 0.0169 µM	< 0.0147 µM	33.1 µM		< 0.215 µM		> 100 µM	0.00546 µM	0.0343 µM		0.0922 µM		0.151 µM	0.000245 µM		0.000136 µM	0.00904 µM and 0.0252 µM		0.0143 µM
CN1CCN(CC(=O)N(C)c2ccc(N=C(c3ccccc3)c3c(O)[nH]c4ccc(C#N)cc34)cc2)CC1	0.0516 µM	6.03 µM	0.614 µM	21.1 µM	3.99 µM	16.5 µM	0.0938 µM	2.09 µM	0.528 µM	12.4 µM	3.06 µM	10.9 µM	3.36 µM	20.8 µM	1.18 µM	6.36 µM	2.65 µM	6.52 µM	3.38 µM	13.4 µM
O=C1NC(=NCc2ccccc2Cl)S/C1=C\c1ccc2ncccc2c1	> 21.8 µM	> 25 µM	15.6 µM	> 25 µM	16 µM	> 25 µM	> 9.99 µM	> 19.4 µM	8.04 µM	> 25 µM	9.54 µM	> 25 µM	5.85 µM	> 22.1 µM	10.1 µM	> 25 µM	17 µM	> 25 µM	> 25 µM	> 25 µM
COc1cc(/C=C2\C(=O)N(Cc3ccc(Cl)cc3)c3ccccc32)cc(OC)c1OC	2.19 µM	5.7 µM	6.82 µM	> 89.4 µM	3.72 µM	12.5 µM	1.65 µM	11.1 µM	3.15 µM	8.52 µM	2.9 µM	8.37 µM	1.64 µM	5.74 µM	1.94 µM	5.44 µM	0.645 µM	2.39 µM	1.95 µM	4.28 µM
O=C(Nc1ccc(Oc2ccc3nc(NC(=O)c4ccco4)[nH]c3c2)cc1)Nc1cc(C(F)(F)F)ccc1F	0.0178 µM	4.31 µM	3.44 µM	12.1 µM	3.44 µM	10.7 µM	0.446 µM	3.42 µM	3.02 µM	11.4 µM	1.28 µM	6.08 µM	0.234 µM	5.74 µM	0.823 µM	7.07 µM	2.17 µM	10.6 µM	2.44 µM	> 20.1 µM
Cc1ccc(CNc2ccc(Br)cc2)cc1		> 100 µM		> 100 µM		> 100 µM		> 100 µM		49.7 µM		41.7 µM		65.3 µM		> 100 µM		17.5 µM		66 µM
O=C1NC(=S)S/C1=C\c1cn(-c2ccccc2)nc1-c1ccccc1	6.24 µM	21.7 µM	11.9 µM	42.2 µM	22.7 µM	68.4 µM	6.03 µM	43.6 µM	21.2 µM	75.8 µM	7.4 µM	21.4 µM	0.623 µM	5.34 µM	4.83 µM	59.8 µM	2.52 µM	68.6 µM	6.05 µM	47.1 µM
